Source: patent publication US7395112B2, “Method and apparatus for treating tumors using low strength electric fields” (priority 2002, dated 2008)

System: CT-26 colon carcinoma
Test: LEF with chemotherapy (LEFCT-EC) in mice bearing 5 mm CT-26 tumors
Type: in vivo, BALB/C mice
Description: Mice: BALB/C male mice were obtained from the breeding colony of Tel-Aviv University, Israel. Mice were used at 8-12 weeks of age. Animal care and experimentation were performed in accordance with the Tel-Aviv University guidelines.
Tumor: Colon carcinoma tumors were grown in mice with CT-26, a metastatic colon carcinoma cell line induced in a BALB/c mouse by chemical carcinogenesis. Cells were cultured in Dulbecco's modified Eagle's medium (DMEM) supplemented with 100 U/ml penicillin, 100 μg/ml streptomycin, 2 mM L-glutamine; 1 mM sodium pyruvate; 1% non-essential amino acid solution; 10% heat-inactivated fetal calf serum. Cultures were maintained at 37° C. in a humidified incubator with a 5% CO2 atmosphere.
Tumor cell inoculation: Mice were inoculated intracutaneously with 10^5 CT-26 cells suspended in 100 μL PBS into the low lateral side of the back. Local tumor growth was determined by measuring three mutually orthogonal tumor diameters with a caliper. The volume of tumor was calculated using the formula: Vol=D1×D2×D3×π/6, where D1, D2, D3 are three mutually orthogonal tumor diameters.
Low-strength electric field stimulation: To subject tumors to LEFs, stainless steel needles were used as electrodes. Tumors 5 mm in diameter (about 65 mm^3) were transfixed by electrode needles, with one cathode in the center of the tumor and three or four peripheral anodes. The electrodes were connected to an electric pulse generator and to an oscilloscope. Pulsed LEFs with a repetition frequency of 500 Hz and a pulse width of 180 μs were applied at 20, 40, 60 and 70 V/cm for a duration 12 min or 20 min. The electric pulses were administered 2-4 min following chemotherapeutic drug administration. Mice were anesthetized 10 min before the procedure.
Chemotherapeutic agents: Bleomycin (Sigma Israel Chemicals Ltd., Israel; Megapharm Ltd., Israel) was kept at a temperature of 2-8° C., and was dissolved in pyrogen-free PBS to a concentration enabling dosages of 50 U/kg body weight prior to use. BCNU was administered at a dosage of 35 mg/kg body weight, and 5-FU (Abic, Israel) was used at a dose of 100 mg/kg body weight.
Anesthesia: Mice were anesthetized using an anesthetic cocktail comprising a dose of imalgen at 100 mg/kg body weight and xylazine hydrochloride at 6.25 mg/kg body weight dissolved in PBS injected intraperitoneally in a volume of 0.25 ml per mouse 10 min prior to LEF treatment.
Statistical analysis: Survival times (Kaplan-Meir test), survival comparisons between groups (Mantel-Cox test), and tumor volume differences between groups were plotted using StatSoft “Statistica” statistical software.
Effect of LEF duration and strength on potentiation of bleomycin for treatment of colon carcinoma: In order to determine the optimal LEFCT-EC/bleomycin therapy for treatment of colon cancer, mice bearing CT-26 tumors were treated with LEFs of 40 V/cm for 12 min, and 20 V/cm for 12 or 20 min with or without administration of bleomycin, and survival was analyzed.

bleomycin
survival with bleomycin + LEF compared with LEF alone (LEF 40 V/cm 12 min, 20 V/cm 12 or 20 min, all combinations tested): greatly enhanced | cure rate (LEFCT-EC: drug + LEF 40 V/cm 12 min, 5 mm tumors): 33% | tumor size with drug + LEF relative to drug only (after 21 days): less than half the size | survival rate (bleomycin intratumoral + LEF 40 V/cm 12 min, after 60 days, unchanged until day 120): 33% | time after which half the mice died (drug alone, no LEF, intratumoral injection (5-FU intratumoral or intravenous), 5 mm tumors): about 51 days
